Measured values published in US9408817B2, “Methods for detecting inflammatory bowel disease in a feline” (Hill's Pet Nutrition, Inc., priority 2005, dated 2016).

Assays:
Assay type in all cases: cell-based
MIF = experiment: cytokine expression by RT-PCR in PHA-stimulated lymphocytes: MIF; conditions: PHA + 12.5 μM, healthy cats (no PHA) = 1
Experimental: (§1) Lymphocytes are obtained from the blood of healthy cats and cats with IBD as described in Example 1 and then treated with DHA or EPA also as described in Example 1. Ribonucleic acid (RNA) is extracted from all samples, and real time polymerase chain reaction (RT-PCR) is performed to examine the changes in the level of expression of the following cytokines: interleukins 1α, 1β, 2, 6, and 10 (IL-1α, IL-1β, IL-2, IL-6, and IL-10), macrophage inhibitory factor (MIF), interferon gamma (IFN-γ), and transforming growth factor beta (TGF-β).

IL-2 = experiment: cytokine expression by RT-PCR in PHA-stimulated lymphocytes: IL-2; conditions: PHA + 12.5 μM, healthy cats (no PHA) = 1
Experimental: as §1

IL-6 = experiment: cytokine expression by RT-PCR in PHA-stimulated lymphocytes: IL-6; conditions: PHA + 12.5 μM, healthy cats (no PHA) = 1
Experimental: as §1

TGF-β = experiment: cytokine expression by RT-PCR in PHA-stimulated lymphocytes: TGF-β; conditions: PHA + 12.5 μM, healthy cats (no PHA) = 1
Experimental: as §1

IL-1β = experiment: cytokine expression by RT-PCR in PHA-stimulated lymphocytes: IL-1β; conditions: PHA + 12.5 μM, healthy cats (no PHA) = 1
Experimental: as §1

IL-10 = experiment: cytokine expression by RT-PCR in PHA-stimulated lymphocytes: IL-10; conditions: PHA + 12.5 μM, healthy cats (no PHA) = 1
Experimental: as §1

IL-1α = experiment: cytokine expression by RT-PCR in PHA-stimulated lymphocytes: IL-1α; conditions: PHA + 12.5 μM, healthy cats (no PHA) = 1
Experimental: as §1

[1] = system: lymphocytes obtained from the blood of healthy cats and cats with IBD; experiment: in vitro lymphocyte proliferation assay (BrdU ELISA, PHA-stimulated); conditions: 40 h
Experimental: The study utilizes eleven healthy cats and eleven cats with IBD, The cats with IBD are diagnosed by an intestinal biopsy, and have a history of chronic diarrhea. For six weeks, all cats are fed a nutritionally adequate dry food indicated for gastrointestinal distress. Blood is drawn from all cats at four, five, and six weeks. Samples with equal amounts of lymphocytes are used in an in vitro lymphocyte proliferation assay.
More specifically, 4.5 ml blood is mixed with 4.5 ml HBSS (Hank's Balanced Salt Solution)+25 mM HEPES. 4 ml of Ficoll-Paque Plus (Amersham) are slowly injected under the diluted blood. The mixture is centrifuged for twenty minutes at 500 g at 25° C. The upper layer is discarded. The lymphocytes are transferred into a clean tube, resuspended in 6 ml of HBSS+25 mM HEPES, and then centrifuged for ten minutes at 200 g at 25° C. The supernatant is discarded, and the lymphocytes are washed with 6 ml of HBSS. This centrifugation and wash step is repeated two more times. The washed lymphocytes are then resuspended in 5 ml of AIM medium (Invitrogen). Samples with 200,000 lymphocytes in 100 μl of AIM medium are used for the lymphocyte proliferation assay.
The lymphocyte proliferation assay is performed utilizing Amersham's Biotrak cell proliferation ELISA system, version 2. Lymphocyte samples are incubated in a 96-well plate with 7 μg/ml PHA (phytohemagglutinin) in the absence or presence of 12.5 μM and 25 μM DHA or EPA in a 37° C. incubator with 5% CO2 and 90% humidity for forty hours. After that, 20 μl of 100 μM BrdU is added, and the samples are incubated for two hours at 37° C. The plates are then removed from the incubator and centrifuged at 300 g for ten minutes at 25° C. The medium is removed by tapping and blotting, and the cells are dried in a chemical fume hood for at least fifteen minutes. 200 μl of fixative is added to every well and the plate is incubated for thirty minutes at room temperature. The cell fixative is removed by tapping and blotting. 200 μl of blocking buffer are added to every well, and the plate is incubated for thirty minutes at room temperature. The blocking buffer is removed by tapping and blotting, and 100 μl of anti-BrdU working solution is added to each well and incubated for ninety minutes at room temperature. The anti-BrdU solution is removed by tapping and blotting, and each well is rinsed three times with 300 μl washing solution. 100 μl 3.3′,5,5′-tetamethylbenzidine is added to each well and incubated for ten minutes or until color intensity is achieved. 25 μl 1M sulfuric acid is added to stop the reaction, and the plate is read on a fusion microplate reader (PerkinElmer) within five minutes.

IFN-γ = experiment: cytokine expression by RT-PCR in PHA-stimulated lymphocytes: IFN-γ; conditions: PHA + 12.5 μM, healthy cats (no PHA) = 1
Experimental: as §1

[2] = lymphocytes of cats with IBD, 7 μg/ml PHA + 12.5 μM fatty acid
[3] = lymphocytes of cats with IBD, 7 μg/ml PHA + 25 μM fatty acid
[4] = lymphocytes of healthy cats, 7 μg/ml PHA + 12.5 μM fatty acid
[5] = lymphocytes of healthy cats, 7 μg/ml PHA + 25 μM fatty acid

Compound: CC/C=C\C/C=C\C/C=C\C/C=C\C/C=C\C/C=C\CCC(=O)O [DHA, docosahexaenoic acid]
- MIF expression (MIF; cats with IBD): 6.55
- MIF expression (MIF; healthy cats): 16.9
- IL-2 expression (IL-2; cats with IBD): 3
- IL-2 expression (IL-2; healthy cats): 21.05
- IL-6 expression (IL-6; cats with IBD): 13.9
- IL-6 expression (IL-6; healthy cats): 5.75
- TGF-β expression (TGF-β; cats with IBD): 1.45
- TGF-β expression (TGF-β; healthy cats): 3.55
- IL-1β expression (IL-1β; cats with IBD): 1.85
- IL-1β expression (IL-1β; healthy cats): 0.87
- IL-10 expression (IL-10; cats with IBD): 0.45
- IL-10 expression (IL-10; healthy cats): 0.95
- IL-1α expression (IL-1α; cats with IBD): 0.57
- IL-1α expression (IL-1α; healthy cats): 0.86
- Lymphocyte Proliferation [1, 2]: 0.49 ± 0.15
- Lymphocyte Proliferation [1, 3]: 0.45 ± 0.18
- Lymphocyte Proliferation [1, 4]: 0.28 ± 0.19
- Lymphocyte Proliferation [1, 5]: 0.25 ± 0.17
- IFN-γ expression (IFN-γ; cats with IBD): 4.9
- IFN-γ expression (IFN-γ; healthy cats): 37.6

Compound: CC/C=C\C/C=C\C/C=C\C/C=C\C/C=C\CCCC(=O)O [EPA, eicosapentaenoic acid]
- MIF expression (MIF; cats with IBD): 4.45
- MIF expression (MIF; healthy cats): 14.05
- IL-2 expression (IL-2; cats with IBD): 1.89
- IL-2 expression (IL-2; healthy cats): 59.4
- IL-6 expression (IL-6; cats with IBD): 6.45
- IL-6 expression (IL-6; healthy cats): 10.6
- TGF-β expression (TGF-β; cats with IBD): 2.4
- TGF-β expression (TGF-β; healthy cats): 4.7
- IL-1β expression (IL-1β; cats with IBD): 1.34
- IL-1β expression (IL-1β; healthy cats): 1.17
- IL-10 expression (IL-10; cats with IBD): 0.34
- IL-10 expression (IL-10; healthy cats): 1.2
- IL-1α expression (IL-1α; cats with IBD): 0.46
- IL-1α expression (IL-1α; healthy cats): 1.05
- Lymphocyte Proliferation [1, 2]: 0.62 ± 0.27
- Lymphocyte Proliferation [1, 3]: 0.63 ± 0.29
- Lymphocyte Proliferation [1, 4]: 0.38 ± 0.23
- Lymphocyte Proliferation [1, 5]: 0.37 ± 0.23
- IFN-γ expression (IFN-γ; cats with IBD): 4.45
- IFN-γ expression (IFN-γ; healthy cats): 130.9
